Measurements reported in US20160237052A1, “Histamine-3 Receptor Antagonists” (MediSynergics, LLC, priority 2015, published 2016).
pKi: −log10 of the molar value. Like-named read-outs stand apart in the source and are kept apart here.

Key:
H3 = H3 (UniProt Q9Y5N1); experiment: Histamine H3 receptor binding (NIMH PDSP); settings: H3 receptor subtype
Experimental: The compounds from the above Examples were tested for activity vs. histamine receptor subtypes (i.e., H1, H2, H3), at an initial concentration of 10 μM. Binding activity measurement was performed by the NIMH Psychoactive Drug Screening Program (PDSP) at the University of North Carolina Chapel Hill, N.C. The procedures employed by the PDSP are described in the NIMH PDSP Assay Protocol Book Version II (see, http://pdsp.med.unc.edu/PDSP %20Protocols %2011%202013-03-28.pdf). Data (e.g., H3antagonist activity) may also be generated using a commercially available kit from Invitrogen/Thermo Fisher Scientific Inc. (Tango™ H3-bla U2OS DA Assay Kit). Data for serotonin reuptake activity (SERT, % inhibition at 10 μM drug concentration; calculated Ki) were also generated by PDSP.

H1 = H1 (Homo sapiens, UniProt P35367); experiment: Histamine H1 receptor binding (NIMH PDSP); settings: for inhibition at 10 µM: read-out: Inhibition (% at 10 μM)
H1, sequence (P35367 whole entry): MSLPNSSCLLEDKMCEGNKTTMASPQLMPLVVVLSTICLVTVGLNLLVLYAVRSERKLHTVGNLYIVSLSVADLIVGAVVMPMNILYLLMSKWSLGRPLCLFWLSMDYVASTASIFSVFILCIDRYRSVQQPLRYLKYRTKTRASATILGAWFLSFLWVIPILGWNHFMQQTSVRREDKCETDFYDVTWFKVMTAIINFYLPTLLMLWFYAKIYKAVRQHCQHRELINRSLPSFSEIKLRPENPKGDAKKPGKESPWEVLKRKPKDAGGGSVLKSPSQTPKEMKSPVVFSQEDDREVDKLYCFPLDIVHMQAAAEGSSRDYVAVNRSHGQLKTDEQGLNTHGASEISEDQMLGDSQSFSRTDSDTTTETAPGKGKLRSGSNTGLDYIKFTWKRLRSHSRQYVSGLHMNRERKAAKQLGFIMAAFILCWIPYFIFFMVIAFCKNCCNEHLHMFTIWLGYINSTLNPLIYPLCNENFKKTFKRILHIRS
Experimental: The compounds from the above Examples were tested for activity vs. histamine receptor subtypes (i.e., H1, H2, H3), at an initial concentration of 10 μM. Binding activity measurement was performed by the NIMH Psychoactive Drug Screening Program (PDSP) at the University of North Carolina Chapel Hill, N.C. […] Data (e.g., H3antagonist activity) may also be generated using a commercially available kit from Invitrogen/Thermo Fisher Scientific Inc. (Tango™ H3-bla U2OS DA Assay Kit).

SERT = SERT (Homo sapiens, UniProt P31645); experiment: Serotonin reuptake activity (SERT), PDSP; assay type: binding; settings: for inhibition at 10 µM: 10 μM drug concentration; for pKi: calculated Ki
SERT, sequence (P31645 whole entry, species assumed): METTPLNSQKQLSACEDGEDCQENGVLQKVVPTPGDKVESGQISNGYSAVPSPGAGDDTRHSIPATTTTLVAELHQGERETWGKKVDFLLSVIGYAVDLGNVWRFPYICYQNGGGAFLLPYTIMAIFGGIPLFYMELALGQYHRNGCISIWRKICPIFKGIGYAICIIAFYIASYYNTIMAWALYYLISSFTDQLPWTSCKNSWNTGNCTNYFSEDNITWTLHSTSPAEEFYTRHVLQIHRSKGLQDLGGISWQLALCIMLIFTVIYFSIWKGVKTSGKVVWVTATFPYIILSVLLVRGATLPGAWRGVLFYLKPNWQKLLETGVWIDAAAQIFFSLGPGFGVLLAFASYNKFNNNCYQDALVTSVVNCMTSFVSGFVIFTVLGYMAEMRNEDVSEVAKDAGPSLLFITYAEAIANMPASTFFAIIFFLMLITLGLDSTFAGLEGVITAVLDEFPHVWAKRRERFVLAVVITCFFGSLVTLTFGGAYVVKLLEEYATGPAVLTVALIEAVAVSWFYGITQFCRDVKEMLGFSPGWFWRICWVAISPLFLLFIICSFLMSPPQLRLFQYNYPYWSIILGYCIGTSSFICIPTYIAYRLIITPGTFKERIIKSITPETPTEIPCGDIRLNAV

## CN(C)CCCC1(c2ccc(F)cc2)OCc2cc(CN3CCCCC3)ccc21 (stereo not drawn) [Example 1]
H3
  pKi: 7.70
  Inhibition (% at 10 μM): 99.6%
H1
  pKi: 7.00
  inhibition at 10 µM: 89.9%
SERT
  inhibition at 10 µM: 98.8%
  pKi: 7.54

## CN(C)CCCC1(c2ccc(F)cc2)OCc2cc(CN3CCN(C)CC3)ccc21 (stereo not drawn) [Example 2, 3-[5-((4-methylpiperazin-1-yl)methyl)-1-(4-fluorophenyl)-1,3-dihydro-2-benzofuran-1-yl]-N,N-dimethylpropan-1-amine]
H3
  pKi: 6.81
  Inhibition (% at 10 μM): 89.8%
H1; H1 receptor subtype, 10 μM
  inhibition at 10 µM: 89.8%
H1; H1 receptor subtype, read-out: Ki
  pKi: 6.84
SERT
  inhibition at 10 µM: 99.3%
  pKi: 7.51
